Patent US7964624B1, “Inhibitors of serine proteases” (priority 2005, dated 2011)

These compounds were tested against T1, HCV NS3 protease domain (Hepatitis C virus genotype 1b, UniProt Q9WMX2) (assay: biochemical). Settings: Enzyme Assay 1 (HCV NS3 Protease Domain Peptide Cleavage Assay) activity, apparent Ki class.
T1 construct: The first 181 amino acids of NS3 (residues 1027-1207 of the viral polyprotein); hexa-histidine (C); made in house; host or cells: E. coli BL21/DE3 pLysS
`CCC[C@H](NC(=O)[C@@H]1C[C@]2(CC(c3cccc(Cl)c3)=NO2)CN1C(=O)[C@@H](NC(=O)C(C)(C#N)Cc1ccccc1)C(C)(C)C)C(=O)C(=O)NC1CC1` (stereo partly shown) [Compound 538] was tested, and the Ki was over 0.5 µM. In the case of `CCC[C@H](NC(=O)[C@@H]1C[C@]2(CC(c3ccc(F)c(C)c3)=NO2)CN1C(=O)[C@@H](NC(=O)CC1CCOCC1)C(C)(C)C)C(=O)C(=O)NC1CC1` [Compound 539], the Ki is reported as 0.1 to 0.5 µM. Work on `CC(C)(C)NC(=O)N[C@H](C(=O)N1C[C@@]2(CC(c3cccc(Cl)c3)=NO2)C[C@H]1C(=O)NC(CC1CCC1)C(=O)C(=O)NC1CC1)C(C)(C)C` (stereo partly shown) [Compound 542] yielded a Ki of under 0.1 µM. Work on `CCC[C@H](NC(=O)[C@@H]1C[C@]2(CC(c3ccc(C(=O)O)cc3)=NO2)CN1C(=O)[C@@H](NC(=O)O[C@H]1CCOC1)C(C)(C)C)C(=O)C(=O)NC1CC1` [Compound 543] yielded a Ki of over 0.5 µM. Work on `CCC[C@H](NC(=O)[C@@H]1C[C@]2(CC(c3cccc(Cl)c3)=NO2)CN1C(=O)[C@@H](NC(=O)C(C)Cn1cnc2ccccc21)C(C)(C)C)C(=O)C(=O)NC1CC1` (stereo partly shown) [Compound 544] yielded a Ki of 0.1 to 0.5 µM. Work on `CCC[C@H](NC(=O)[C@@H]1C[C@]2(CC(c3ccc(F)c(C(F)(F)F)c3)=NO2)CN1C(=O)[C@@H](NC(=O)O[C@H]1CCOC1)C(C)(C)C)C(=O)C(=O)NC1CC1` [Compound 545] yielded a Ki of 0.1 to 0.5 µM. `CCC[C@H](NC(=O)[C@@H]1C[C@]2(CC(CC)=NO2)CN1C(=O)[C@@H](NC(=O)[C@@H](NC(=O)c1cnccn1)C1CCCCC1)C(C)(C)C)C(=O)C(=O)NC1CC1` [Compound 547] showed a Ki of under 0.1 µM. In the case of `CCC[C@H](NC(=O)[C@@H]1C[C@]2(CC(c3cccc(Cl)c3)=NO2)CN1C(=O)[C@@H](NC(=O)[C@@H](CC(=O)N1CCCC1)C1CCCCC1)C(C)(C)C)C(=O)C(=O)NC1CC1` [Compound 549], the Ki is reported as under 0.1 µM. With `CCC[C@H](NC(=O)[C@@H]1C[C@]2(CC(c3ccc4c(c3)CCO4)=NO2)CN1C(=O)[C@@H](NC(=O)CC1CCCCC1)C(C)(C)C)C(=O)C(=O)NC1CC1` [Compound 552] the Ki was 0.1 to 0.5 µM. Work on `CCC[C@H](NC(=O)[C@@H]1C[C@]2(CC(c3cccc(Cl)c3)=NO2)CN1C(=O)[C@@H](NC(=O)Cc1cc(=O)[nH]c(=O)[nH]1)C(C)(C)C)C(=O)C(=O)NC1CC1` [Compound 553] yielded a Ki of 0.1 to 0.5 µM. In the case of `CCC[C@H](NC(=O)[C@@H]1C[C@]2(CC(c3ccc(CC)o3)=NO2)CN1C(=O)[C@@H](NC(=O)CC1CCOCC1)C(C)(C)C)C(=O)C(=O)NC1CC1` [Compound 554], the Ki is reported as over 0.5 µM. Compound `CCC[C@H](NC(=O)[C@@H]1C[C@]2(CC(c3ccc(F)c(C)c3)=NO2)CN1C(=O)[C@@H](NC(=O)O[C@H]1CCOC1)C(C)(C)C)C(=O)C(=O)NC1CC1` [Compound 555] has a Ki of 0.1 to 0.5 µM. Compound `CCC[C@H](NC(=O)[C@@H]1C[C@]2(CC(c3cccc(Cl)c3)=NO2)CN1C(=O)[C@@H](NC(=O)C1CC=CCC1C(=O)OC)C(C)(C)C)C(=O)C(=O)NC1CC1` (stereo partly shown) [Compound 557] has a Ki of 0.1 to 0.5 µM. Compound `CCC[C@H](NC(=O)[C@@H]1C[C@]2(CC(c3cccc(Cl)c3)=NO2)CN1C(=O)[C@@H](NC(=O)Nc1ccccc1)C(C)(C)C)C(=O)C(=O)NC1CC1` [Compound 558] has a Ki of 0.1 to 0.5 µM. Compound `CCC[C@H](NC(=O)[C@@H]1C[C@]2(CC(c3cccc(C(F)(F)F)c3)=NO2)CN1C(=O)[C@@H](NC(=O)O[C@H]1CCOC1)C(C)(C)C)C(=O)C(=O)NC1CC1` [Compound 560] has a Ki of 0.1 to 0.5 µM. `CCC[C@H](NC(=O)[C@@H]1C[C@]2(CC(c3cccc(Cl)c3)=NO2)CN1C(=O)[C@@H](NC(=O)OCc1cc(F)ccc1F)C(C)(C)C)C(=O)C(=O)NC1CC1` [Compound 561] was tested, and the Ki was 0.1 to 0.5 µM. `CCC[C@H](NC(=O)[C@@H]1C[C@]2(CC(c3cccc(Cl)c3)=NO2)CN1C(=O)[C@@H](NC(=O)OCc1cccnc1)C(C)(C)C)C(=O)C(=O)NC1CC1` [Compound 563] was tested, and the Ki was 0.1 to 0.5 µM. Compound `CCC[C@H](NC(=O)[C@@H]1C[C@]2(CC(c3ccc4c(c3)OCO4)=NO2)CN1C(=O)[C@@H](NC(C)=O)C(C)(C)C)C(=O)C(=O)NC1CC1` [Compound 570] has a Ki of 0.1 to 0.5 µM. `CCC[C@H](NC(=O)[C@@H]1C[C@]2(CC(c3cccc(Cl)c3)=NO2)CN1C(=O)[C@@H](NC(=O)c1ccnn1-c1ccccc1)C(C)(C)C)C(=O)C(=O)NC1CC1` [Compound 571] showed a Ki of 0.1 to 0.5 µM. For `CCC[C@H](NC(=O)[C@@H]1C[C@]2(CC(c3cc(C)c(OC)c(C)c3)=NO2)CN1C(=O)[C@@H](NC(=O)CC1CCOCC1)C(C)(C)C)C(=O)C(=O)NC1CC1` [Compound 572], the Ki was 0.1 to 0.5 µM. `CCC[C@H](NC(=O)[C@@H]1C[C@]2(CC(c3cccc(Cl)c3)=NO2)CN1C(=O)[C@@H](NC(=O)Nc1cccnc1)C(C)(C)C)C(=O)C(=O)NC1CC1` [Compound 576] showed a Ki of 0.1 to 0.5 µM. With `CC(C)C[C@H](NC(=O)[C@@H]1C[C@]2(CC(c3cccc(Cl)c3)=NO2)CN1C(=O)[C@@H](NC(=O)CC1CCCCC1)C(C)(C)C)C(=O)C(=O)NC1CC1` [Compound 579] the Ki was 0.1 to 0.5 µM. Compound `CCC[C@H](NC(=O)[C@@H]1C[C@]2(CC(c3ccccc3)=NO2)CN1C(=O)[C@@H](NC(=O)NCC)C(C)(C)C)C(=O)C(=O)NC1CC1` [Compound 580] has a Ki of 0.1 to 0.5 µM. With `CCC[C@H](NC(=O)[C@@H]1C[C@]2(CC(c3cccc(Cl)c3)=NO2)CN1C(=O)[C@@H](NC(=O)OCCc1cccs1)C(C)(C)C)C(=O)C(=O)NC1CC1` [Compound 582] the Ki was 0.1 to 0.5 µM. Compound `CCC[C@H](NC(=O)[C@@H]1C[C@]2(CC(c3cccc(Cl)c3)=NO2)CN1C(=O)[C@@H](NC(=O)NCc1ccccc1)C(C)(C)C)C(=O)C(=O)NC1CC1` [Compound 583] has a Ki of 0.1 to 0.5 µM. For `CCC[C@H](NC(=O)[C@@H]1C[C@]2(CC(c3ccccc3)=NO2)CN1C(=O)c1ccc[nH]1)C(=O)C(=O)NC1CC1` [Compound 584], the Ki was over 0.5 µM. `CCC[C@H](NC(=O)[C@@H]1C[C@]2(CC(c3cccc(Cl)c3)=NO2)CN1C(=O)[C@@H](NC(=O)Cc1cccc(OC(F)(F)F)c1)C(C)(C)C)C(=O)C(=O)NC1CC1` [Compound 585] was tested, and the Ki was 0.1 to 0.5 µM.

The compounds below were run against T2, full-length hepatitis C viral protein NS3•4A (Hepatitis C virus genotype 1a, UniProt P27958) (assay: biochemical). Settings: Enzyme Assay 2 (HCV NS3 Peptide Cleavage Assay) activity, apparent Ki class.
T2 construct: hexa-histidine (N); made in house; host or cells: Sf9 insect cells (baculovirus, pVL1392)
Set-up: species or system HCV sub-type strain 1a
In the case of `CCC[C@H](NC(=O)[C@@H]1C[C@@]2(CC(c3cccc4cccnc34)=NO2)CN1C(=O)[C@@H](NC(=O)CC1CCCCC1)C(C)(C)C)C(=O)C(=O)NC1CC1` [Compound 31], the Ki is reported as 0.1 to 0.5 µM. `CCC[C@H](NC(=O)[C@@H]1C[C@]2(CC(c3cc(Cl)cc(OC)c3Cl)=NO2)CN1C(=O)[C@@H](NC(=O)CC1CCCCC1)C(C)(C)C)C(=O)C(=O)NC1CC1` [Compound 38] showed a Ki of 0.1 to 0.5 µM. `CCC[C@H](NC(=O)[C@@H]1C[C@]2(CC(c3cccc(Cl)c3)=NO2)CN1C(=O)[C@@H](NC(=O)CC1CCCCC1)C(C)(C)C)C(=O)C(=O)N1CC(OCC2CCOC2)C1` (stereo partly shown) [Compound 49] was tested, and the Ki was under 0.1 µM. Work on `CC(C)(C)[C@H](NC(=O)CC1CCCCC1)C(=O)N1C[C@@]2(CC(c3cccc(Cl)c3)=NO2)C[C@H]1C(=O)N[C@@H](CC1CC1)C(=O)C(=O)NC1CC1` [Compound 50] yielded a Ki of under 0.1 µM. For `COc1cc(OC)c(C2=NO[C@]3(C2)CC(C(=O)N[C@@H](CC2CC2)C(=O)C(N)=O)N(C(=O)[C@@H](NC(=O)CC2CCCCCC2)C(C)(C)C)C3)cc1Cl` (stereo partly shown) [Compound 59], the Ki was under 0.1 µM. `CCC[C@H](NC(=O)[C@@H]1C[C@]2(CC(c3cccc4cccnc34)=NO2)CN1C(=O)[C@@H](NC(=O)CC1CCCCC1)C(C)(C)C)C(=O)C(=O)NC` [Compound 68] was tested, and the Ki was under 0.1 µM. For `CCC[C@H](NC(=O)[C@@H]1C[C@]2(CC(c3cccc([N+](=O)[O-])c3)=NO2)CN1C(=O)[C@@H](NC(=O)CC1CCCCC1)C(C)(C)C)C(=O)C(=O)NC1CC1` [Compound 89], the Ki was 0.1 to 0.5 µM. `CCC[C@H](NC(=O)[C@@H]1C[C@]2(CC(c3cccc(Cl)c3)=NO2)CN1C(=O)[C@@H](NC(=O)OC(C)(C)C)C(C)(C)C)C(=O)C(=O)NC1CC1` [Compound 90] was tested, and the Ki was under 0.1 µM. `COc1cc(OC)c(C2=NO[C@]3(C2)C[C@@H](C(=O)N[C@@H](CC2CC2)C(=O)C(N)=O)N(C(=O)[C@@H](NC(=O)CC(C)(C)C)C(C)(C)C)C3)cc1Cl` [Compound 104] gave a Ki of under 0.1 µM. `CCC[C@H](NC(=O)[C@@H]1C[C@]2(CC(c3cc(Cl)c(OC)cc3OC)=NO2)CN1C(=O)[C@@H](NC(=O)CC1CCCCCC1)C(C)(C)C)C(=O)C(=O)NC1CC1` [Compound 129] was tested, and the Ki was under 0.1 µM. `CCC[C@H](NC(=O)[C@@H]1C[C@]2(CC(c3cc(Cl)c(OC)cc3OC)=NO2)CN1C(=O)[C@@H](NC(=O)OC(C)(C)C)C(C)(C)C)C(=O)C(=O)NC1CC1` [Compound 131] was tested, and the Ki was under 0.1 µM. `CCC[C@H](NC(=O)[C@@H]1C[C@]2(CC(c3cccc(Cl)c3F)=NO2)CN1C(=O)[C@@H](NC(=O)CC1CCCCC1)C(C)(C)C)C(=O)C(=O)NC1CC1` [Compound 169] gave a Ki of 0.1 to 0.5 µM. Work on `CCC[C@H](NC(=O)[C@@H]1C[C@]2(CC(c3cc(Cl)cc4c3OC(C)(C)C4)=NO2)CN1C(=O)[C@@H](NC(=O)CC1CCCCC1)C(C)(C)C)C(=O)C(=O)NC1CC1` [Compound 170] yielded a Ki of under 0.1 µM. `CC1(CC(=O)N[C@H](C(=O)N2C[C@@]3(CC(c4cccc(Cl)c4)=NO3)C[C@H]2C(=O)N[C@@H](CC2CC2)C(=O)C(N)=O)C(C)(C)C)CCOCC1` [Compound 184] showed a Ki of under 0.1 µM. `COc1c(C)cc(C2=NO[C@]3(C2)C[C@@H](C(=O)N[C@@H](CC2CC2)C(=O)C(N)=O)N(C(=O)[C@@H](NC(=O)CC2CCCCC2)C(C)(C)C)C3)cc1Cl` [Compound 195] was tested, and the Ki was under 0.1 µM. Work on `CCC[C@H](NC(=O)[C@@H]1C[C@]2(CC(c3cccc(Cl)c3)=NO2)CN1C(=O)[C@@H](NC(=O)CC1CCCCC1)C1(OC)CC1)C(=O)C(=O)NC1CC1` [Compound 211] yielded a Ki of under 0.1 µM. `CC(C)(C)[C@H](NC(=O)CC1CCCCCC1)C(=O)N1C[C@@]2(CC(c3cccc(Cl)c3)=NO2)C[C@H]1C(=O)N[C@@H](CC1CC1)C(=O)C(N)=O` [Compound 219] gave a Ki of under 0.1 µM. `CCC[C@H](NC(=O)[C@@H]1C[C@]2(CC(c3cccc(Cl)c3)=NO2)CN1C(=O)[C@@H](NC(=O)CC1CCCCC1)C(C)(C)C)C(=O)C(=O)N1CC(OC[C@H]2CCCO2)C1` [Compound 238] showed a Ki of over 0.5 µM. For `CCC[C@H](NC(=O)[C@@H]1C[C@]2(CC(c3cc(Cl)cc(OC)c3)=NO2)CN1C(=O)[C@@H](NC(=O)CC1CCCCC1)C(C)(C)C)C(=O)C(=O)NC1CC1` [Compound 250], the Ki was under 0.1 µM.
